The values below come from the SangsterLogP compilation.

Usually logP stands for a log measure of how a compound divides between an organic and an aqueous phase. Lower therefore signals a more hydrophilic compound.

The series can be described thus: method code SF-GLC, from DOI: 10.1016/s0045-6535(99)00157-5.

On to `ClC=C1C2CC(C1(CCl)CCl)C(Cl)(Cl)C2Cl` (stereo not drawn), for which the lipophilicity (logP) was 5.2.
The result for `CC1(C(Cl)Cl)C2C(Cl)C(Cl)C1(C(Cl)Cl)C(Cl)C2Cl` (stereo not drawn) reads 5.52.
Under `ClCC1(CCl)C2C(Cl)C(Cl)C1(CCl)C(Cl)(Cl)C2Cl` (stereo not drawn) stands 5.74; under `ClC[C@@]1(C(Cl)Cl)C2[C@@H](Cl)[C@H](Cl)C1(C(Cl)Cl)[C@@H](Cl)[C@@H]2Cl`, 5.89; under `ClCC1(CCl)C2C(Cl)C(Cl)(Cl)C1(C(Cl)Cl)CC2(Cl)Cl` (stereo not drawn), 6.26.
Under `ClCC12CCC(C(Cl)C1(Cl)Cl)C2(C(Cl)Cl)C(Cl)Cl` (stereo not drawn) stands 5.49; under `ClCC1(CCl)C2[C@@H](Cl)[C@H](Cl)C1(C(Cl)Cl)[C@@H](Cl)[C@@H]2Cl`, 5.57.
In the case of `ClCC1(C(Cl)Cl)C(=C(Cl)Cl)C2CC1C(Cl)(Cl)C2Cl` (stereo not drawn), the logP stood at 5.49.
The result for `ClCC1(CCl)C(=C(Cl)Cl)C2CC1C(Cl)(Cl)C2Cl` (stereo not drawn) reads 5.44.
Under `ClCC1(CCl)[C@H]2CC(Cl)(Cl)[C@]1(CCl)[C@@H](Cl)[C@@H]2Cl` stands 5.23.
The result for `CC1(CCl)C2CC(Cl)(Cl)C1(C(Cl)Cl)CC2Cl` (stereo not drawn) reads 5.49.
Regarding `ClC=C1C2C(Cl)C(Cl)C(C2Cl)C1(CCl)CCl` (stereo not drawn), the logP worked out at 5.35. This logP and that of the compound before are within 0.2 log units of each other.
Under `ClCC1(C(Cl)Cl)C2CC(Cl)(Cl)C1(C(Cl)Cl)CC2(Cl)Cl` (stereo not drawn) stands 5.96; under `C[C@]1(C(Cl)Cl)[C@H]2CC(Cl)(Cl)[C@]1(C(Cl)Cl)CC2(Cl)Cl`, 5.9; under `ClCC1(C(Cl)Cl)C2CC(Cl)C1(C(Cl)Cl)CC2(Cl)Cl` (stereo not drawn), 5.75.
Under `ClCC1(C(Cl)Cl)C2CC(Cl)(Cl)C1(C(Cl)Cl)C(Cl)C2Cl` (stereo not drawn) stands 5.8; under `ClC[C@@]1(C(Cl)Cl)[C@@H]2CC(Cl)(Cl)[C@@]1(C(Cl)Cl)[C@H](Cl)C2(Cl)Cl`, 6.64; under `ClCC1(C(Cl)Cl)C2C(Cl)CC1(C(Cl)Cl)C(Cl)C2Cl` (stereo not drawn), 5.19.
